Here are results for one compound from ChEMBL document CHEMBL6177958, “6,7-Dimethoxy-2-methyl-4-substituted quinazolines: Design, synthesis, EGFR inhibitory activity, in vitro cytotoxicity, and in silico studies” (Eur J Med Chem, 2025).

Holding throughout (format): functional
Assay [1] has as its system HCT-116. Briefly: Cell cycle arrest in human HCT-116 cells assessed as accumulation of cells at G0-G1 phase by flow cytometry (reference value: 46.33%).
In assay [2] the test system is HCT-116. Kind of assay: Cell cycle arrest in human HCT-116 cells assessed as accumulation of cells at S phase by flow cytometry (reference value: 39.26%).
Assay [3] deals with HCT-116. Briefly: Cell cycle arrest in human HCT-116 cells assessed as accumulation of cells at G2-M phase by flow cytometry (reference value: 14.41%).
Assay [4] has as its system HCT-116. Briefly: Induction of apoptosis in human HCT-116 cells assessed as total apoptotic cells measured after 24 hrs by PI based flow cytometry (reference value: 2.38%).
Assay [5] concerns HCT-116. Kind of assay: Induction of apoptosis in human HCT-116 cells assessed as early apoptotic cells measured after 24 hrs by PI based flow cytometry (reference value: 0.43%).
Assay [6] has as its system HCT-116. Briefly: Induction of apoptosis in human HCT-116 cells assessed as late apoptotic cells measured after 24 hrs by PI based flow cytometry (reference value: […]).
In assay [7] the test system is HCT-116. Briefly: Induction of apoptosis in human HCT-116 cells assessed as necrotic apoptotic cells measured after 24 hrs by PI based flow cytometry (reference value: 1.84%).

For the compound `COc1cc2nc(C)nc(N/N=C/c3cc(CN4CCN(C)CC4)c(O)c(OC)c3)c2cc1OC`, the Activity was determined as 42.18% in the assay with HCT-116 [1]; 49.11% in the assay with HCT-116 [2]; 8.71% with HCT-116 [3]; 39.88% in the assay on HCT-116 [4]; 26.13% in the assay on HCT-116 [5]; 11.27% in the assay on HCT-116 [6]. Also, in the assay with HCT-116 [7], the Activity is reported as 2.48%.
